# “Also recorded” adds a separate entry of the source.
# Experiments:
# [1] = tested on: SARS-CoV-2 (hCoV-19/Egypt/NRC-03/2020); assay type: cell-based
# VERO-E6 cells = assay: MTT cytotoxicity assay (CC50); assay type: cell-based; details: 24 h, in words
# Protocol: To assess the half maximal cytotoxic concentration (CC50), stock solutions of the test compounds were prepared in 10% DMSO in ddH2O and diluted further to the working solutions with DMEM. The cytotoxic activity of the extracts was tested in VERO-E6 cells by using the 3-(4,5-dimethylthiazol-2-yl)-2,5-diphenyltetrazolium bromide (MTT) method with minor modifications. Briefly, the cells were seeded in 96 well-plates (100 μl/well at a density of 3×10^5 cells/ml) and incubated for 24 h at 37° C. in 5% CO2. After 24 h, cells were treated with various concentrations of the tested compounds in triplicates. 24 h later, the supernatant was discarded, and cell monolayers were washed with sterile 1× phosphate buffer saline (PBS) 3 times and MTT solution (20 μl of 5 mg/ml stock solution) was add to each well and incubated at 37° C. for 4 h followed by medium aspiration. In each well, the formed formazan crystals were dissolved with 200 μl of acidified isopropanol (0.04 M HCl in absolute isopropanol=0.073 ml HCL in 50 ml isopropanol). Absorbance of formazan solutions was measured at λ max 540 nm with 620 nm as a reference wavelength using a multi-well plate reader. […]
Substance,antiviral activity against SARS-CoV-2 [1],inhibitory effect / viral inhibition [1],toxicity (VERO-E6 cells)
"7,7′-dihexyl-10,10′-dimethyl-8,8′-dioxo-3,3′-bis(p-tolyl)-4,4′-spirobi[5-oxa-2,7-diaza-3-azonia-4λ^4-cuprabicyclo[4.4.0]deca-1(6),2,9-triene]-9,9′-dicarbonitrile [Complex D2]",active antiviral activity; also recorded: significant antiviral activity,acceptable range of viral inhibition,low toxicity
"4,4-bis[(dimethylamino)methoxy]-7,7′-dihexyl-10,10′-dimethyl-3,3′-bis(4-nitrophenyl)-8,8′-dioxo-4,4′-spirobi[5-oxa-2,7-diaza-3-azonia-4λ^6-cuprabicyclo[4.4.0]deca-1(6),2,9-triene]-9,9′-dicarbonitrile [Complex D1]",active antiviral activity; also recorded: significant antiviral activity,somewhat higher inhibitory effect compared to D2; also recorded: acceptable range of viral inhibition,low toxicity

# — patent publication US11786537B2 (priority 2022, dated 2023)
